Laboratory results: patent publication US20210253518A1, “KINASE INHIBITOR” (NISSAN CHEMICAL CORPORATION, priority 2018, published 2021)

Legend:
[1] = target: T1, LATS2 (Homo sapiens, UniProt Q9NRM7); assay: Kinase Assay method (Fluorospark Kinase/ADP Multi-Assay Kit); format: biochemical
T1 construct: purchased Carna Biosciences
T1 sequence (Q9NRM7 553-1088 limits assumed): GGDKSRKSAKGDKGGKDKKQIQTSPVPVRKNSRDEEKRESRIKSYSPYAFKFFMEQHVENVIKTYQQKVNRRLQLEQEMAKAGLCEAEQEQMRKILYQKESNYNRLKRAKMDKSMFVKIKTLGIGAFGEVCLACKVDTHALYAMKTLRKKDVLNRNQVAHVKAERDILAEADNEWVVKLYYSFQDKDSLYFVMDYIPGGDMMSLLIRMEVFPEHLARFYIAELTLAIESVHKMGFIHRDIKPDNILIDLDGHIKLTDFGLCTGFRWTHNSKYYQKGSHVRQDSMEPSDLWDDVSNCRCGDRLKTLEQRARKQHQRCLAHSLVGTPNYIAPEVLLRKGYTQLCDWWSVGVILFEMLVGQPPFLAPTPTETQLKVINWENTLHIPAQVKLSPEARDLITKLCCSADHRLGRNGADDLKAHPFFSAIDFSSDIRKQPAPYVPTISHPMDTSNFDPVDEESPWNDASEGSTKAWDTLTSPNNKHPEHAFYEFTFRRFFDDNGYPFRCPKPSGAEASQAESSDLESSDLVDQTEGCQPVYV
Protocol: (§1) For compound k-1:B-1 (racemate), GA-002A, GA-002B, GA-005A and GA-005B, inhibitory activity evaluation (calculation of IC50) was performed on LATS1 and LATS2 (manufactured by Carna Biosciences). The activity was measured using the Kinase Assay method described below. The compounds were added such that the test concentration of k-1:B-1 (racemate), GA-002A, GA-002B, GA-005A and GA-005B was in 8 steps (10 μM, 1 μM, 100 nM, […], 10 nM, 3 nM, 1 nM, 0.3 nM) from the final concentration of 10 μM to 0.3 nM.
(§2) As the analysis method of the data, the mean signal of the control well containing reaction components other than the evaluation compound was set to 0% inhibition, the mean signal without enzyme addition was set to 100% inhibition, and the inhibition rate was calculated from the mean signal of 2 wells of each test substance test. IC50 value was calculated using EXSUS (version 7.1.6, manufactured by CAC EXICARE Corporation).
(§3) 2 μL of a compound of the present invention solution at 2.5-fold concentration, 1 μL of substrate at 5-fold concentration (SGKtide: NH2—CKKRNRRLSVA-COOH, manufactured by SignalChem), ATP (manufactured by Sigma-Aldrich), MgCl2 (manufactured by FUJIFILM Wako Pure Chemical Corporation) solution (final concentration 10 μM, 400 μM or 5 mM), and 2 μL of kinase solution at 2.5-fold concentration (final concentration of LATS1 or LATS2 5 μg/mL), each prepared with assay buffer (20 mM HEPES, 0.01% Triton X-100, 2 mM DTT, pH 7.5), were mixed in the wells of a polypropylene 384-well plate (manufactured by Greiner Bio-One, #784900) and reacted at room temperature for 5 hr. Successively, 5 μL detection solution (Fluorospark (registered trade mark)Kinase/ADP Multi-Assay Kit; manufactured by FUJIFILM Wako Pure Chemical Corporation) was added, and the mixture was reacted at room temperature 30 min. Successively, 5 μL of a reaction quenching liquid (Fluorospark (registered trade mark) Kinase/ADP Multi-Assay Kit; manufactured by FUJIFILM Wako Pure Chemical Corporation) was added to discontinue the reaction. Thereafter, the ADP concentration of the reaction solution was quantified by EnSpire (manufactured by PerkinElmer) to detect the kinase reaction.

[2] = target: T2, LATS1 (Homo sapiens, UniProt O95835); assay: as above; format: biochemical
T2 construct: purchased Carna Biosciences
T2 sequence (O95835 589-1130 limits assumed): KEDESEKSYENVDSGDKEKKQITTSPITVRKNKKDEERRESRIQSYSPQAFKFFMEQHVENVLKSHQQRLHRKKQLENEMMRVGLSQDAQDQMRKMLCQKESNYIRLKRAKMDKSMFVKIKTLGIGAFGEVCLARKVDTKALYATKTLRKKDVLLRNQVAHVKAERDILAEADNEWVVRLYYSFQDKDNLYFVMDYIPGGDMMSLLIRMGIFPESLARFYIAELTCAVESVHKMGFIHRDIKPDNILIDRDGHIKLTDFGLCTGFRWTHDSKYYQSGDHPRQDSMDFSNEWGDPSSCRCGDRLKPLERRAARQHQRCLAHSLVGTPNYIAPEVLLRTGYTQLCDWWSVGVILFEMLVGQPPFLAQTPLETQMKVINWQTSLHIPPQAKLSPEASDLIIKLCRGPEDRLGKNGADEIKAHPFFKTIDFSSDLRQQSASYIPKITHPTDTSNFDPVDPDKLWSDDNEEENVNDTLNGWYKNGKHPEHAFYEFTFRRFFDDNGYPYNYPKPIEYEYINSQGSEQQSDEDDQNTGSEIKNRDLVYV
Protocol: as §1, §2, §3

[3] = tested on: YAP (phospho-S127 and total); assay: YAP phosphorylation inhibitory action in SKOV3 cells (HTRF, YAP-total kit / YAP phospho-S127 kit); format: cell-based, human; conditions: 10 μM, 1 hr, Non-treatment as 100%
Protocol: Human ovarian cancer cell line SKOV3 (manufactured by DS Pharma Biomedical Co., Ltd) was precultured (single layer culture) in a 15% FBS-containing McCoy's 5a medium (manufactured by Sigma Ltd. Aldrich). The above-mentioned cells in the logarithmic growth phase were washed with PBS, a 0.25% (w/v) trypsin-1 mmol/L ethylenediaminetetraacetic acid (EDTA) solution (manufactured by Fujifilm Wako Pure Chemical Corporation) was added, and adherent cells were detached by incubating at 37° C. for 3 min. The above-mentioned medium was added and the mixture was centrifuged and resuspended in the same medium.
According to the method of patent document (WO 2014/017513), a composition of 10% FBS-containing DMEM medium (Phenol-red free, manufactured by FUJIFILM Wako Pure Chemical Corporation) containing 0.015% (w/v) deacylated gellan gum (KELCOGEL CG-LA, manufactured by SANSHO Co., Ltd.) was prepared using FCeM-series Preparation Kit (manufactured by FUJIFILM Wako Pure Chemical Corporation). Then, various cells prepared above were suspended in the above-mentioned medium composition (3D conditions) added with deacylated gellan gum or a medium without the addition (2D conditions), and seeded on a 50 μL/well (manufactured by Corning Incorporated, 96 well flat bottom plate, #3585, 2D conditions) or 25 μL/well (manufactured by Corning Incorporated, 96 well low adhesion flat bottom plate, #3474) at 100000 cells/well. The plate was allowed to stand at 37° C. in a 5% CO2 incubator, and the compound of the present invention diluted with the medium at 2 or 6 times the final concentration, DMSO, or the medium alone was added to the plate 3 hr after the seeding at 50 μL/well (2D conditions) or 5 μL/well (3D conditions) to make the final concentration of each compound 10 μM. After culture at 37° C. in a 5% CO2 incubator for 1 hr, the supernatant was aspirated, supplemented Lysis buffer (1-fold concentration, manufactured by Cisbio, YAP-total kit or YAP phospho-S127 kit) (50 μL) was added under 2D conditions, and supplemented Lysys buffer (4-fold concentration) (10 μL) was added to the culture supernatant under 3D conditions, and the mixture was stirred by a plate shaker for 30 min. Thereafter, the plate was centrifuged, 16 μL of the supernatant was transferred to a 384-well white plate (Corning, #4512), and each antibody solution (pYAP d2 antibody or Total-YAP d2 antibody, and pYAP Cryptate antibody or Total-YAP Cryptate antibody) included in the kit was added at 4 μL/well in total, and the mixture was allowed to stand at room temperature overnight. As a blank control, pYAP Cryptate antibody or Total-YAP Cryptate antibody alone was added to cells free of stimulation with compound and the mixture was treated in the same manner (Non-treatment). The next day, the wavelengths at 665 nm and 615 nm were measured in the HTRF mode of EnVision (manufactured by PerkinElmer).
The obtained signal was calculated as follows. Ratio=signal (665 nm)/signal (615 nm)×10000, ΔR=Signal(Ratio)−Background fluorescence, and the relative value with respect to ΔR of the compound non-addition group (Non-treatment) as 100% was calculated, and the phosphorylated YAP amount or total YAP amount by each compound was evaluated.

[4] = Kinase Assay method, 8 steps 10 μM to 0.3 nM

## CC/C(=N\NC(=O)[C@@H](C)Nc1cccc(O)c1)c1ccc(O)c(C)c1O [GA-005A]
[1]; 100 nM, read-out: LARS2 inhibitory rate (%)
  inhibition at 0.1 µM: 99%
[1]; 1000 nM, read-out: LARS2 inhibitory rate (%)
  inhibition at 1 µM: 100%
[1]; [4]
  IC50: 7.39 nM
[2]; 100 nM, read-out: LARS1 inhibitory rate (%)
  inhibition at 0.1 µM: 96%
[2]; 1000 nM, read-out: LARS1 inhibitory rate (%)
  inhibition at 1 µM: 97%
[2]; [4]
  IC50: 4.79 nM
[3]; 2D condition
  phosphorylated YAP (%): 10%
  total YAP (%): 91%
[3]; 3D condition
  phosphorylated YAP (%): 10%
  total YAP (%): 107%
